The target of one experiment is MMP-9 (Homo sapiens, UniProt P14780). The experiment is described as follows: K(obs) of individual phage substrates (set of 1369). Type of experiment: biochemical. Conditions: MMP9.
Experiment [1] has as its system MMP-2. The experiment is described as follows: Substrate phage display with NGS: relative probability (RP) of P3-P1' tetramer clusters.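 Note: ratio of tetramer probability after protease selection to that in naive phage library.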 Type of experiment: biochemical, human. The following applies: MMP2.
In experiment [2] the target is T1, MMP-2 (Homo sapiens, UniProt P08253).
T1 sequence (P08253 110-660): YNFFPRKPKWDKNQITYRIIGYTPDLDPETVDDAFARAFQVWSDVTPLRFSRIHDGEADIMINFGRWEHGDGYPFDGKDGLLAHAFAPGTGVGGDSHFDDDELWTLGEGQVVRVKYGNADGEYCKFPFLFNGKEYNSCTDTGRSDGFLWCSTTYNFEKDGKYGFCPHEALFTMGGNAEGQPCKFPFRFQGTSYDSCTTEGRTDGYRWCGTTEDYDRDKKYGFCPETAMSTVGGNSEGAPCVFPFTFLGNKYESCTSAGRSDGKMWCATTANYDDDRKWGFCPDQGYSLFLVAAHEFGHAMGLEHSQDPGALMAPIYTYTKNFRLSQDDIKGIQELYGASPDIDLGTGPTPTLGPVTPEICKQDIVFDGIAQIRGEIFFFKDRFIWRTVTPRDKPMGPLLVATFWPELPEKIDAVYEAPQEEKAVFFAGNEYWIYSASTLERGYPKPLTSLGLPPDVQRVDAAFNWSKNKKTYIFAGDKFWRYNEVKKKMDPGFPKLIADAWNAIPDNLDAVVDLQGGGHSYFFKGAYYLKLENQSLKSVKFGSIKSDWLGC
The experiment is described as follows: K(obs) of individual phage substrates (set of 1369). Type of experiment: biochemical. The following applies: MMP2.

[3] abbreviates: individual phage substrates, set of 1369 peptides, hyphen in sequence marks cleavage position.
Setting [4] is: RP of the P3-P1' tetramer contained in the substrate (substrate phage display with NGS).
Where [5] appears, read: individual phage substrates, set of 1369 peptides, cleavage position marked by hyphen in sequence.
Where [6] appears, read: individual phage substrate of the set of 1369 peptides, dash in the sequence marks the cleavage position.
Setting [7] is: RP of the P3-P1' tetramer contained in the substrate.
The mark [8] stands for this setting: individual phage substrate of the set of 1369 peptides, cleavage position marked by '-'.

Sequence of MMP-9 (P14780 94-707): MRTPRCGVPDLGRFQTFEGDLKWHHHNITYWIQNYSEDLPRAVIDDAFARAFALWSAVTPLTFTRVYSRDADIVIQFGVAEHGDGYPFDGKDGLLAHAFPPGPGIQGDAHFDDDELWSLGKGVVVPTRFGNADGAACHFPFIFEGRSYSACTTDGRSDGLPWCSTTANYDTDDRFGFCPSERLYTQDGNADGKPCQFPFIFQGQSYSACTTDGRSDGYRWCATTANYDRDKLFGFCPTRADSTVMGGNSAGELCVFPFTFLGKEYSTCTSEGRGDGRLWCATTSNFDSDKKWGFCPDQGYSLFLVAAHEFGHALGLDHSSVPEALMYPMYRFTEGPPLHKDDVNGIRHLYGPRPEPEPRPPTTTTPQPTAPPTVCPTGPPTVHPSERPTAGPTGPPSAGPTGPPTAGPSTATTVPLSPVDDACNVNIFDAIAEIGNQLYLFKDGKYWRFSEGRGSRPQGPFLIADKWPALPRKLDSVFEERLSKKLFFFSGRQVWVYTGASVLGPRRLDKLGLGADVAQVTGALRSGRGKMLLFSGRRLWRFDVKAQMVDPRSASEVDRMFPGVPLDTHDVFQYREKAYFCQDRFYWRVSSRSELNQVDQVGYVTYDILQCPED

For RGPYM-LTASG, the “Kobs” value was 12792.1 M⁻¹ s⁻¹ at MMP-9 (setting [3]) and 6688.74 M⁻¹ s⁻¹ at MMP-2 [2] (setting [5]). Further, the “relative probability (RP)” value with MMP-2 [1] (setting [4]) is 24.9477.
For SGPFH-LSRTA, in that order: 2280.5 M⁻¹ s⁻¹, 84.609 M⁻¹ s⁻¹ and 23.4724.
In the case of SGPRP-LLATA, the “Kobs” value on MMP-9 (setting [6]) and at MMP-2 [2] (setting [8]) was 12792.1 M⁻¹ s⁻¹ in each case. Moreover, the “relative probability (RP)” value in the experiment with MMP-2 [1] (setting [7]) was 34.3303.
On to GQARG-LQTAS, for which the “Kobs” value at MMP-9 (setting [6]) amounted to 1660.66 M⁻¹ s⁻¹; on MMP-2 [2] (setting [8]), 3253.29 M⁻¹ s⁻¹. The “relative probability (RP)” value in the experiment on MMP-2 [1] (setting [7]) stood at 25.9476.
The corresponding values for SGPRM-LVLTA are 6688.74 M⁻¹ s⁻¹, 4082.43 M⁻¹ s⁻¹ and 30.5973.
The corresponding values for ELVRS-LTASG are 12792.1 M⁻¹ s⁻¹, 12792.1 M⁻¹ s⁻¹ and 12.3051.
The corresponding values for VMLRF-LTASG are 8321.48 M⁻¹ s⁻¹, 12792.1 M⁻¹ s⁻¹ and 10.7085.
GIVRY-LQTAS: the results for the “Kobs” value on MMP-9 (setting [6]) and on MMP-2 [2] (setting [8]) were 3438.54 M⁻¹ s⁻¹ and 4922.1 M⁻¹ s⁻¹, respectively. For the same substance, the “relative probability (RP)” value in the experiment with MMP-2 [1] (setting [7]) is recorded as 18.3724.
With PIALH-WTASG, the “Kobs” value at MMP-9 (setting [3]) and at MMP-2 [2] (setting [5]) was 12792.1 M⁻¹ s⁻¹ in each case. The “relative probability (RP)” value in the experiment with MMP-2 [1] (setting [4]) is on record as 5.12.
In the case of ISWLN-LTASG, the “Kobs” value on MMP-9 (setting [3]) came out at 386.839 M⁻¹ s⁻¹; at MMP-2 [2] (setting [5]), 1112.44 M⁻¹ s⁻¹. For the same substance, the “relative probability (RP)” value in the experiment with MMP-2 [1] (setting [4]) is given as 0.1218.
In the case of GAPRF-LSTAS, the “Kobs” value at MMP-9 (setting [6]) and at MMP-2 [2] (setting [8]) was 12792.1 M⁻¹ s⁻¹ throughout. In addition, the “relative probability (RP)” value in the experiment with MMP-2 [1] (setting [7]) is 28.4443.
For GRGAN-LKTAS, the figures for the “Kobs” value at MMP-9 (setting [3]) and on MMP-2 [2] (setting [5]) were 951.362 M⁻¹ s⁻¹ and 1816.46 M⁻¹ s⁻¹, respectively. Besides, in the experiment with MMP-2 [1] (setting [4]), the “relative probability (RP)” value worked out at 13.1428.
Consider GWPNA-FLTAS, for which the “Kobs” value at MMP-9 (setting [6]) stood at 231.616 M⁻¹ s⁻¹; on MMP-2 [2] (setting [8]) it was 5667.28 M⁻¹ s⁻¹. Moreover, the “relative probability (RP)” value in the experiment with MMP-2 [1] (setting [7]) is listed as 16.8865.
The corresponding values for SGPTN-LRTTA are 12792.1 M⁻¹ s⁻¹, 12792.1 M⁻¹ s⁻¹ and 31.0288.
With VLWAG-LTASG, the “Kobs” value on MMP-9 (setting [3]) was 3344.37 M⁻¹ s⁻¹; on MMP-2 [2] (setting [5]), 12792.1 M⁻¹ s⁻¹. Moreover, the “relative probability (RP)” value in the experiment with MMP-2 [1] (setting [4]) is recorded as 28.1709.
As to SGHRS-LRSTA, the “Kobs” value at MMP-9 (setting [6]) came to 3536.02 M⁻¹ s⁻¹; at MMP-2 [2] (setting [8]), 1981.53 M⁻¹ s⁻¹. Further, in the experiment with MMP-2 [1] (setting [7]), the “relative probability (RP)” value stood at 7.851.
Consider TIPFY-MTASG, for which the “Kobs” value at MMP-9 (setting [3]) was 9740.44 M⁻¹ s⁻¹; at MMP-2 [2] (setting [5]), 3964.21 M⁻¹ s⁻¹. Further, the “relative probability (RP)” value with MMP-2 [1] (setting [4]) came out at 8.184.
For RTASH-LTASG, the “Kobs” value on MMP-9 (setting [6]) turned out to be 84.609 M⁻¹ s⁻¹; on MMP-2 [2] (setting [8]), 8321.48 M⁻¹ s⁻¹. In the experiment with MMP-2 [1] (setting [7]), the “relative probability (RP)” value is listed as 19.8208.
Take KKWRG-LTASG: the figures for the “Kobs” value on MMP-9 (setting [6]) and at MMP-2 [2] (setting [8]) were 6688.74 M⁻¹ s⁻¹ and 3079.62 M⁻¹ s⁻¹, respectively. For the same substance, in the experiment on MMP-2 [1] (setting [7]), the “relative probability (RP)” value is 23.375.
The corresponding values for HRWSA-LTASG are 619.843 M⁻¹ s⁻¹, 12792.1 M⁻¹ s⁻¹ and 25.8217.
Regarding SGPNY-IRATA, the “Kobs” value on MMP-9 (setting [3]) stood at 12792.1 M⁻¹ s⁻¹; on MMP-2 [2] (setting [5]), 7386.83 M⁻¹ s⁻¹. For the same substance, the “relative probability (RP)” value in the experiment with MMP-2 [1] (setting [4]) stood at 6.689.
Take ESFAA-LTASG: the “Kobs” value was determined as 56.119 M⁻¹ s⁻¹ at MMP-9 (setting [6]) and 12792.1 M⁻¹ s⁻¹ at MMP-2 [2] (setting [8]). The “relative probability (RP)” value in the experiment on MMP-2 [1] (setting [7]) is reported as 18.8584.
For NHVWP-LTASG, in that order: 726.013 M⁻¹ s⁻¹, 1154.21 M⁻¹ s⁻¹ and 5.294.
For RLPVA-ITASG, in that order: 12792.1 M⁻¹ s⁻¹, 12792.1 M⁻¹ s⁻¹ and 32.4892.
For SGVRA-IIATA, in that order: 12792.1 M⁻¹ s⁻¹, 12792.1 M⁻¹ s⁻¹ and 26.2338.
Regarding GYPWS-LSTAS, the “Kobs” value on MMP-9 (setting [6]) came to 7015.91 M⁻¹ s⁻¹; at MMP-2 [2] (setting [8]), 2218.08 M⁻¹ s⁻¹. Besides, the “relative probability (RP)” value in the experiment on MMP-2 [1] (setting [7]) worked out at 28.5684.
For SGYRS-LYSTA, the “Kobs” value on MMP-9 (setting [3]) came to 2476.66 M⁻¹ s⁻¹; at MMP-2 [2] (setting [5]), 2280.5 M⁻¹ s⁻¹. Moreover, in the experiment with MMP-2 [1] (setting [4]), the “relative probability (RP)” value came out at 1.506.

For the origin of these results see PMC7932537, “Quantitative profiling of protease specificity” (PLoS Computational Biology, 2021).
